# Test results from ChEMBL document CHEMBL5247607, “Design, synthesis and biological evaluation of a new series of arylidene indanones as small molecules for targeted therapy of non-small cell lung carcinoma and prostate cancer” (Eur J Med Chem, 2022).
# pIC50: −log10 of the molar value. Calls of active or inactive are those of the source. No cut-off for these calls is given here.
# Experiments:
# [1] = Selectivity index, ratio of IC50 for cytotoxicity against human CCD 19Lu cells to IC50 for cytotoxicity against human A549 cells; type: toxicity, cell-based; details: CCD 19Lu cells versus A549 cells, read-out: Ratio IC50
# [2] = Cytotoxicity against human CCD 19Lu cells assessed as inhibition of cell growth incubated for 24 hrs by MTT assay; type: toxicity, cell-based
# [3] = Cytotoxicity against human hTERT-HPNE cells assessed as inhibition of cell growth incubated for 24 hrs by MTT assay; type: toxicity, cell-based
# [4] = test system: PANC-1; assay: Cytotoxicity against human PANC-1 cells assessed as inhibition of cell growth incubated for 24 hrs by MTT assay; type: functional, cell-based; details: PANC-1, 24 h
# [5] = molecular target: Cathepsin D (Homo sapiens) (UniProt P07339); assay: Inhibition of cathepsin D (unknown origin) at 100 uM
# [6] = Selectivity index, ratio of IC50 for cytotoxicity against human hTERT-HPNE cells to IC50 for cytotoxicity against human PANC-1 cells; type: toxicity, cell-based; details: hTERT-HPNE cells versus PANC-1 cells, read-out: Ratio IC50
# [7] = test system: A549; assay: Cytotoxicity against human A549 cells assessed as inhibition of cell growth incubated for 24 hrs by MTT assay; type: functional, cell-based; details: A549, 24 h
# [8] = molecular target: Procathepsin L (Homo sapiens) (UniProt P07711); assay: Inhibition of cathepsin L (unknown origin) at 100 uM relative to control
# [9] = test system: A549; assay: Inhibition of DNA synthesis in human A549 cells at IC50/4 incubated for 24 hrs by BrdU incorporation assay relative to control; type: functional
# [10] = test system: A549; assay: Induction of apoptosis in human A549 cells assessed as activation of caspase-3 by measuring caspase-3 negative cells at IC50 incubated for 24 hrs by flow cytometry analysis (reference value: 91.1%); type: functional
# [11] = test system: PANC-1; assay: Induction of mitochondrial membrane potential loss in human PANC-1 cells assessed as polarized cells at IC50 incubated for 24 hrs by JC-1 staining based flow cytometry assay (reference value: 92%); type: functional
# [12] = test system: A549; assay: Inhibition of DNA synthesis in human A549 cells at IC50 incubated for 24 hrs by BrdU incorporation assay relative to control; type: functional
# [13] = test system: A549; assay: Induction of morphological changes in human A549 cells assessed as chromatin condensation at 15.33 uM incubated for 24 hrs by acridine orange/ethidium bromide staining based fluorescence microscopic analysis; type: functional, cell-based
# [14] = test system: A549; assay: Induction of mitochondrial membrane potential loss in human A549 cells assessed as depolarized cells at IC50 incubated for 24 hrs by JC-1 staining based flow cytometry assay (reference value: 6.9%); type: functional
# [15] = test system: PANC-1; assay: Induction of apoptosis in human PANC-1 cells assessed as late apoptotic cells at IC50 incubated for 24 hrs by annexin V-FITC/PI staining based flow cytometry analysis (reference value: 0.2%); type: functional
# [16] = test system: PANC-1; assay: Induction of apoptosis in human PANC-1 cells assessed as early apoptotic cells at IC50 incubated for 24 hrs by annexin V-FITC/PI staining based flow cytometry analysis (reference value: 0%); type: functional
# [17] = test system: A549; assay: Inhibition of DNA synthesis in human A549 cells at IC50/2 incubated for 24 hrs by BrdU incorporation assay relative to control; type: functional
# [18] = test system: A549; assay: Induction of apoptosis in human A549 cells assessed as early apoptotic cells at IC50 incubated for 24 hrs by annexin V-FITC/PI staining based flow cytometry analysis (reference value: 5.6%); type: functional
# [19] = test system: A549; assay: Induction of mitochondrial membrane potential loss in human A549 cells assessed as polarized cells at IC50 incubated for 24 hrs by JC-1 staining based flow cytometry assay (reference value: 90.6%); type: functional
# [20] = test system: PANC-1; assay: Induction of apoptosis in human PANC-1 cells assessed as total cell viability at IC50 incubated for 24 hrs by annexin V-FITC/PI staining based flow cytometry analysis (reference value: 84.4%); type: functional
# [21] = test system: A549; assay: Induction of apoptosis in human A549 cells assessed as activation of caspase-3 by measuring caspase-3 positive cells at IC50 incubated for 24 hrs by flow cytometry analysis (reference value: 8.4%); type: functional
# [22] = test system: PANC-1; assay: Induction of morphological changes in human PANC-1 cells assessed as formation of apoptotic bodies at 10.04 uM incubated for 24 hrs by acridine orange/ethidium bromide staining based fluorescence microscopic analysis; type: functional, cell-based
# [23] = test system: PANC-1; assay: Induction of morphological changes in human PANC-1 cells assessed as cell shrinkage at 10.04 uM incubated for 24 hrs by acridine orange/ethidium bromide staining based fluorescence microscopic analysis; type: functional
# [24] = test system: PANC-1; assay: Induction of apoptosis in human PANC-1 cells assessed as activation of caspase-3 by measuring caspase-3 positive cells at IC50 incubated for 24 hrs by flow cytometry analysis (reference value: 1.8%); type: functional
# [25] = test system: PANC-1; assay: Induction of morphological changes in human PANC-1 cells assessed as chromatin condensation at 10.04 uM incubated for 24 hrs by acridine orange/ethidium bromide staining based fluorescence microscopic analysis; type: functional, cell-based
# [26] = test system: A549; assay: Induction of morphological changes in human A549 cells assessed as cell shrinkage at 15.33 uM incubated for 24 hrs by acridine orange/ethidium bromide staining based fluorescence microscopic analysis; type: functional
# [27] = test system: A549; assay: Induction of morphological changes in human A549 cells assessed as formation of apoptotic bodies at 15.33 uM incubated for 24 hrs by acridine orange/ethidium bromide staining based fluorescence microscopic analysis; type: functional, cell-based
# [28] = test system: PANC-1; assay: Induction of mitochondrial membrane potential loss in human PANC-1 cells assessed as depolarized cells at IC50 incubated for 24 hrs by JC-1 staining based flow cytometry assay (reference value: 5%); type: functional
# [29] = molecular target: Procathepsin L (Homo sapiens) (UniProt P07711); assay: Inhibition of cathepsin L (unknown origin) at 100 uM
# [30] = test system: PANC-1; assay: Inhibition of DNA synthesis in human PANC-1 cells at 10.04 uM incubated for 24 hrs by BrdU incorporation assay relative to control; type: functional
# [31] = test system: A549; assay: Induction of apoptosis in human A549 cells assessed as late apoptotic cells at IC50 incubated for 24 hrs by annexin V-FITC/PI staining based flow cytometry analysis (reference value: 6.5 %); type: functional
# [32] = test system: PANC-1; assay: Induction of apoptosis in human PANC-1 cells assessed as activation of caspase-3 by measuring caspase-3 negative cells at IC50 incubated for 24 hrs by flow cytometry analysis (reference value: 98.5 %); type: functional
# [33] = test system: A549; assay: Induction of apoptosis in human A549 cells assessed as total cell viability at IC50 incubated for 24 hrs by annexin V-FITC/PI staining based flow cytometry analysis (reference value: 85.6 %); type: functional
# [34] = molecular target: Cathepsin D (Homo sapiens) (UniProt P07339); assay: Inhibition of cathepsin D (unknown origin) at 100 uM relative to control
# Chain of Cathepsin D (Homo sapiens) (P07339 65-162 limits assumed): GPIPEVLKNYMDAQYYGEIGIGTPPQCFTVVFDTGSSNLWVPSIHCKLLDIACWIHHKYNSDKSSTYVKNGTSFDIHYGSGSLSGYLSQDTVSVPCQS
# Chain of Cathepsin D (Homo sapiens) (P07339 169-412 limits assumed): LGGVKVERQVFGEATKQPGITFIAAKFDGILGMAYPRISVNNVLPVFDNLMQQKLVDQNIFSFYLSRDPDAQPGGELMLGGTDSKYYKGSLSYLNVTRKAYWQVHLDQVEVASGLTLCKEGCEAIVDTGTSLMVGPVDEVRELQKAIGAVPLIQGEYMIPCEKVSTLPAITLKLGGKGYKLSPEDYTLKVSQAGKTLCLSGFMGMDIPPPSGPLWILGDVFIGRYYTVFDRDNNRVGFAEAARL
# Chain of Procathepsin L (Homo sapiens) (P07711 114-333 limits assumed): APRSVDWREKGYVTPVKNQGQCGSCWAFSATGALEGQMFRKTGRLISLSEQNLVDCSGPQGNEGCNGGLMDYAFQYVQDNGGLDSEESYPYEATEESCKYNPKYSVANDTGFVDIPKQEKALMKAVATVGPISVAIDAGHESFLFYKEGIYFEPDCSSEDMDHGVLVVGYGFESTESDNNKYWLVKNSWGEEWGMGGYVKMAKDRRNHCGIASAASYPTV
smiles,measurement,setting,value
O=C1/C(=C/c2ccc(-n3ccnc3)cc2)Cc2cc3c(cc21)OCO3,selectivity ratio,[1],> 11.4
same,IC50 at 24 h,[2],> 1510 µM
same,IC50 at 24 h,[3],153 µM
same,pIC50,[4],4.15
same,inhibition,[5],inactive
same,selectivity ratio,[6],2.16
same,pIC50,[7],3.88
same,inhibition,[8],24.8%
O=C1/C(=C/c2ccc(OCCN3CCOCC3)cc2)Cc2cc3c(cc21)OCO3,inhibition (INH),[9],4.83%
same,Activity,[10],93.2%
same,selectivity ratio,[1],10.4
same,Activity,[11],37.8%
same,inhibition (INH),[12],19.99%
same,IC50 at 24 h,[2],160 µM
same,IC50 at 24 h,[3],> 1270 µM
same,Activity,[13],Active
same,Activity,[14],35%
same,Activity,[15],0.5%
same,Activity,[16],0.1%
same,pIC50,[4],5.00
same,inhibition (INH),[17],9.78%
same,Activity,[18],10.4%
same,Activity,[19],62.8%
same,Activity,[20],9.5%
same,inhibition,[5],inactive
same,selectivity ratio,[6],> 127
same,Activity,[21],6.9%
same,Activity,[22],Active
same,Activity,[23],Active
same,Activity,[24],7.3%
same,pIC50,[7],4.81
same,Activity,[25],Active
same,Activity,[26],Active
same,Activity,[27],Active
same,Activity,[28],61.2%
same,inhibition,[29],inactive
same,inhibition at 10.04 µM,[30],18.4%
same,Activity,[31],5.6%
same,Activity,[32],93.6%
same,Activity,[33],82.4%
O=C1/C(=C/c2ccc(N3CCCCC3)cc2)Cc2cc3c(cc21)OCO3,IC50 at 24 h,[2],< 11.2 µM
same,inhibition,[34],39.1%
same,IC50 at 24 h,[3],1180 µM
same,pIC50,[4],3.44
same,selectivity ratio,[6],3.28
same,pIC50,[7],4.79
same,inhibition,[29],inactive
O=C1/C(=C/c2ccc(N3CCOCC3)cc2)Cc2cc3c(cc21)OCO3,selectivity ratio,[1],> 25.6
same,IC50 at 24 h,[2],> 1430 µM
same,inhibition,[34],34.9%
same,IC50 at 24 h,[3],1210 µM
same,pIC50,[4],3.66
same,selectivity ratio,[6],5.52
same,pIC50,[7],4.25
same,inhibition,[29],inactive
